Measured values from US20230330112A1, “COMPOSITION AND TREATMENT FOR CANCER WITH MUTATIONS” (BRIDGE BIOTHERAPEUTICS, INC., priority 2022, published 2023).

Assay: Phase 1 study of Compound A for NSCLC, safety
Assay type: in vivo, human
Description: A first-in-human phase 1 study is ongoing to evaluate the safety of Compound A, including a dose-escalation phase to characterize dose-limiting toxicities (DLTs) (FIG. 6) and determine the recommended phase 2 dose (NCT04820023). Eligibility criteria included advanced-stage NSCLC with an activating EGFR mutation and disease progression on at least one prior EGFR inhibitor. A measurable lesion was required for exploratory evaluation of efficacy. Starting from 20 mg QD (once daily; every day), Compound A dose levels were escalated after evaluating dose-DLT relationships and toxicity probabilities during the first 21 days of dosing.
All enrolled patients underwent ctDNA analysis (Guardant360, Guardant Health) at screening and every 6 weeks throughout treatment, which was compared to imaging at the same time points. Changes in allelic frequency were calculated as per the proprietary algorithm of Guardant Health (7). Intra-patient dose-escalation to the next dose level was allowed. Plasma samples were collected at prespecified time points at cycle 2, Day 1 following multiple doses (steady state) of Compound A in the dose-escalation cohorts, and the plasma concentrations were determined by a validated LC-MS/MS method with the LLOQ established at 1 ng/mL.

COc1cc(N2CCC(N3CCN(C)CC3)CC2)ccc1Nc1ncc(Cl)c(Nc2ccccc2NS(C)(=O)=O)n1 [Compound A, N-(2-((5-chloro-2-((2-methoxy-4-(4-(4-methylpiperazin-1-yl)piperidin-1-yl)phenyl)amino)pyrimidin-4-yl)amino)phenyl)methanesulfonamide]
Anorexia, All grade, % (20 mg QD (N = 4)): 0%
Anorexia, Grade ≥ 3, % (20 mg QD (N = 4)): 0%
Any TEAE, All grade, % (20 mg QD (N = 4)): 75%
Any TEAE, Grade ≥ 3, % (20 mg QD (N = 4)): 25%
Constipation, All grade, % (20 mg QD (N = 4)): 0%
Constipation, Grade ≥ 3, % (20 mg QD (N = 4)): 0%
Diarrhea, All grade, % (20 mg QD (N = 4)): 0%
Diarrhea, Grade ≥ 3, % (20 mg QD (N = 4)): 0%
Dizziness, All grade, % (20 mg QD (N = 4)): 0%
Dizziness, Grade ≥ 3, % (20 mg QD (N = 4)): 0%
Dyspepsia, All grade, % (20 mg QD (N = 4)): 0%
Dyspepsia, Grade ≥ 3, % (20 mg QD (N = 4)): 0%
Nausea, All grade, % (20 mg QD (N = 4)): 0%
Nausea, Grade ≥ 3, % (20 mg QD (N = 4)): 0%
Neutropenia/Neutrophil count decreased, All grade, % (20 mg QD (N = 4)): 0%
Neutropenia/Neutrophil count decreased, Grade ≥ 3, % (20 mg QD (N = 4)): 0%
Platelet count decreased, All grade, % (20 mg QD (N = 4)): 0%
Platelet count decreased, Grade ≥ 3, % (20 mg QD (N = 4)): 0%
Serious TEAE, All grade, % (20 mg QD (N = 4)): 0%
Serious TEAE, Grade ≥ 3, % (20 mg QD (N = 4)): 0%
TEAE leading to Dose interruption, All grade, % (20 mg QD (N = 4)): 0%
TEAE leading to Dose interruption, Grade ≥ 3, % (20 mg QD (N = 4)): 0%
TEAE leading to Dose permanently discontinued, All grade, % (20 mg QD (N = 4)): 0%
TEAE leading to Dose permanently discontinued, Grade ≥ 3, % (20 mg QD (N = 4)): 0%
TEAE leading to Dose reduced, All grade, % (20 mg QD (N = 4)): 0%
TEAE leading to Dose reduced, Grade ≥ 3, % (20 mg QD (N = 4)): 0%
Vomiting, All grade, % (20 mg QD (N = 4)): 0%
Vomiting, Grade ≥ 3, % (20 mg QD (N = 4)): 0%
Anorexia, All grade, % (80 mg QD (N = 3)): 0%
Anorexia, Grade ≥ 3, % (80 mg QD (N = 3)): 0%
Any TEAE, All grade, % (80 mg QD (N = 3)): 67%
Any TEAE, Grade ≥ 3, % (80 mg QD (N = 3)): 0%
Constipation, All grade, % (80 mg QD (N = 3)): 33%
Constipation, Grade ≥ 3, % (80 mg QD (N = 3)): 0%
Diarrhea, All grade, % (80 mg QD (N = 3)): 0%
Diarrhea, Grade ≥ 3, % (80 mg QD (N = 3)): 0%
Dizziness, All grade, % (80 mg QD (N = 3)): 0%
Dizziness, Grade ≥ 3, % (80 mg QD (N = 3)): 0%
Dyspepsia, All grade, % (80 mg QD (N = 3)): 33%
Dyspepsia, Grade ≥ 3, % (80 mg QD (N = 3)): 0%
Nausea, All grade, % (80 mg QD (N = 3)): 0%
Nausea, Grade ≥ 3, % (80 mg QD (N = 3)): 0%
Neutropenia/Neutrophil count decreased, All grade, % (80 mg QD (N = 3)): 0%
Neutropenia/Neutrophil count decreased, Grade ≥ 3, % (80 mg QD (N = 3)): 0%
Platelet count decreased, All grade, % (80 mg QD (N = 3)): 0%
Platelet count decreased, Grade ≥ 3, % (80 mg QD (N = 3)): 0%
Serious TEAE, All grade, % (80 mg QD (N = 3)): 0%
Serious TEAE, Grade ≥ 3, % (80 mg QD (N = 3)): 0%
TEAE leading to Dose interruption, All grade, % (80 mg QD (N = 3)): 0%
TEAE leading to Dose interruption, Grade ≥ 3, % (80 mg QD (N = 3)): 0%
TEAE leading to Dose permanently discontinued, All grade, % (80 mg QD (N = 3)): 0%
TEAE leading to Dose permanently discontinued, Grade ≥ 3, % (80 mg QD (N = 3)): 0%
TEAE leading to Dose reduced, All grade, % (80 mg QD (N = 3)): 0%
TEAE leading to Dose reduced, Grade ≥ 3, % (80 mg QD (N = 3)): 0%
Vomiting, All grade, % (80 mg QD (N = 3)): 33%
Vomiting, Grade ≥ 3, % (80 mg QD (N = 3)): 0%
Anorexia, All grade, % (160 mg QD (N = 4)): 0%
Anorexia, Grade ≥ 3, % (160 mg QD (N = 4)): 0%
Any TEAE, All grade, % (160 mg QD (N = 4)): 75%
Any TEAE, Grade ≥ 3, % (160 mg QD (N = 4)): 0%
Constipation, All grade, % (160 mg QD (N = 4)): 25%
Constipation, Grade ≥ 3, % (160 mg QD (N = 4)): 0%
Diarrhea, All grade, % (160 mg QD (N = 4)): 0%
Diarrhea, Grade ≥ 3, % (160 mg QD (N = 4)): 0%
Dizziness, All grade, % (160 mg QD (N = 4)): 0%
Dizziness, Grade ≥ 3, % (160 mg QD (N = 4)): 0%
Dyspepsia, All grade, % (160 mg QD (N = 4)): 0%
Dyspepsia, Grade ≥ 3, % (160 mg QD (N = 4)): 0%
Nausea, All grade, % (160 mg QD (N = 4)): 25%
Nausea, Grade ≥ 3, % (160 mg QD (N = 4)): 0%
Neutropenia/Neutrophil count decreased, All grade, % (160 mg QD (N = 4)): 0%
Neutropenia/Neutrophil count decreased, Grade ≥ 3, % (160 mg QD (N = 4)): 0%
Platelet count decreased, All grade, % (160 mg QD (N = 4)): 0%
Platelet count decreased, Grade ≥ 3, % (160 mg QD (N = 4)): 0%
Serious TEAE, All grade, % (160 mg QD (N = 4)): 25%
Serious TEAE, Grade ≥ 3, % (160 mg QD (N = 4)): 0%
TEAE leading to Dose interruption, All grade, % (160 mg QD (N = 4)): 0%
TEAE leading to Dose interruption, Grade ≥ 3, % (160 mg QD (N = 4)): 0%
TEAE leading to Dose permanently discontinued, All grade, % (160 mg QD (N = 4)): 0%
TEAE leading to Dose permanently discontinued, Grade ≥ 3, % (160 mg QD (N = 4)): 0%
TEAE leading to Dose reduced, All grade, % (160 mg QD (N = 4)): 0%
TEAE leading to Dose reduced, Grade ≥ 3, % (160 mg QD (N = 4)): 0%
Vomiting, All grade, % (160 mg QD (N = 4)): 25%
Vomiting, Grade ≥ 3, % (160 mg QD (N = 4)): 0%
Treatment-related adverse events of grade ≥3 (320 mg QD): occurred
Anorexia, All grade, % (320 mg QD (N = 3)): 33%
Anorexia, Grade ≥ 3, % (320 mg QD (N = 3)): 0%
